# From patent US20230373939A1 (VERTEX PHARMACEUTICALS INCORPORATED, priority 2020, published 2023)
# Read-outs that look alike come from different tables or passages of the source.
# Legend:
# CFTR = CFTR (Homo sapiens, UniProt P13569); assay: Standard Ussing Chamber Assay for CFTR potentiator activity; type: cell-based
# Procedure: tert-Butyl N-[(6R,12R)-6-benzyloxy-12-methyl-6,15-bis(trifluoromethyl)-13,19-dioxa-3,4,18-triazatricyclo[12.3.1.12,5]nonadeca-1(18),2,4,14,16-pentaen-17-yl]-N-tert-butoxycarbonyl-carbamate (8.6 g, 11.77 mmol) was dissolved in ethanol (172 mL) then the flask was cycled 3 times between vacuum/nitrogen. Treated the mixture with 10% Pd/C (50% water wet, 1.8 g of 5% w/w, 0.8457 mmol) then cycled 3 times between vacuum/nitrogen and 3 times between vacuum/hydrogen and then stirred vigorously under hydrogen (balloon) at room temperature for 18 h. The mixture was cycled 3 times between vacuum/nitrogen, filtered over Celite washing with ethanol and then the filtrate was evaporated to give 7.3 g of tert-butyl N-tert-butoxycarbonyl-N-[(6R,12R)-6-hydroxy-12-methyl-6,15-bis(trifluoromethyl)-13,19-dioxa-3,4,18-triazatricyclo[12.3.1.12,5]nonadeca-1(18),2,4,14,16-pentaen-17-yl]carbamate an off-white solid. 1H NMR and MS confirmed the expected product. CFTR modulatory activity was confirmed using a standard Ussing Chamber Assay for CFTR potentiator activity.
# F508del in NIH 3T3 cells = target: T1, F508del in NIH 3T3 cells (Homo sapiens, UniProt P13569, DEL508-508); assay: 3T3 assay: membrane potential optical assay for F508del correction; type: cell-based; details: for EC50: read-out: 3T3 EC50
# T1 construct: expressed in transfected cells
# T1 sequence (P13569 with tags, fused parts or gaps DEL508-508): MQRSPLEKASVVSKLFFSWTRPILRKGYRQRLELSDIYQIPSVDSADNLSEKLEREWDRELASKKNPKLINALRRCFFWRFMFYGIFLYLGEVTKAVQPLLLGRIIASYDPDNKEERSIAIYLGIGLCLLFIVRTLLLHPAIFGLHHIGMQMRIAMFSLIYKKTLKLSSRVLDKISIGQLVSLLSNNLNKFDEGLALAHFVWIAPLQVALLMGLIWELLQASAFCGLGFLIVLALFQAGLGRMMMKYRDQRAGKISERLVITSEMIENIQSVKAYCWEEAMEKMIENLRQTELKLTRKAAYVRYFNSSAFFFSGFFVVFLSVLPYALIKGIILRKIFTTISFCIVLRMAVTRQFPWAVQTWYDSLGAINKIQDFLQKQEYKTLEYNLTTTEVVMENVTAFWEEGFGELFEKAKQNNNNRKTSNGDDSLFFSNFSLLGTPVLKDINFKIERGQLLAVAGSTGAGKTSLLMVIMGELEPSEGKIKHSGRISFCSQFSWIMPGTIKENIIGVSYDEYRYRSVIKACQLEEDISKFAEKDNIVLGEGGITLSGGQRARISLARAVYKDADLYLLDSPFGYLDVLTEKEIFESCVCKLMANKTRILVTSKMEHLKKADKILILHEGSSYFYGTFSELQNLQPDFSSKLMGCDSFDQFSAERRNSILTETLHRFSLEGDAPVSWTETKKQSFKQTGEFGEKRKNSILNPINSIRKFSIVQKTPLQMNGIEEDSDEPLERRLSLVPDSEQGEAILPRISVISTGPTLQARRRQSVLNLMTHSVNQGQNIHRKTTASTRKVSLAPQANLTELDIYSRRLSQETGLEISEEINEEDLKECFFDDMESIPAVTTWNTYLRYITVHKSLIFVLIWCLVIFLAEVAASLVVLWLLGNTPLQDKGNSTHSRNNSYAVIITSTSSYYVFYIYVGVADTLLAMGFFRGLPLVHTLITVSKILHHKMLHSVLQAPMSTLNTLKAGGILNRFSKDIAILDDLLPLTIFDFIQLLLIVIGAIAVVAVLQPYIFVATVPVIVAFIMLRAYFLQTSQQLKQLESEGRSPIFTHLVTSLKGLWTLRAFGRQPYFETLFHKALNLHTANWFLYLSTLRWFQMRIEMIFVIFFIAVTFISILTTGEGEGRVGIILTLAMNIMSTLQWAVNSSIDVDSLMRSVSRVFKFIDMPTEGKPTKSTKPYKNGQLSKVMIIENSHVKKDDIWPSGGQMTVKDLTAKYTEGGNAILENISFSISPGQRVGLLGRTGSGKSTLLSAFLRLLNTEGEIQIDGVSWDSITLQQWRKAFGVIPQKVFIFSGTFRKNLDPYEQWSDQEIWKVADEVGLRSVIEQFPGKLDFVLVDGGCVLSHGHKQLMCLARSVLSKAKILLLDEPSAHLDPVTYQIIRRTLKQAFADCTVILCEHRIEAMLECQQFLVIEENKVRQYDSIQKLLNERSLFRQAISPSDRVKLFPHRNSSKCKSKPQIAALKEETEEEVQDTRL
# Summary of the method: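 NIH 3T3 mouse fibroblasts stably expressing F508del were incubated with corrector compounds at a range of concentrations for 16–24 h at 37 °C, then loaded with a voltage-sensing redistribution dye. Channel activity was read as membrane-potential change on FLIPR after a single addition of forskolin with a chloride-free (gluconate) bath creating a Cl⁻ gradient.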
# [1] = NIH3T3, NIH 3T3 cells, F508del, read-out: 3T3 Max Activity (%)
# Sequence of CFTR (P13569 whole entry, species assumed): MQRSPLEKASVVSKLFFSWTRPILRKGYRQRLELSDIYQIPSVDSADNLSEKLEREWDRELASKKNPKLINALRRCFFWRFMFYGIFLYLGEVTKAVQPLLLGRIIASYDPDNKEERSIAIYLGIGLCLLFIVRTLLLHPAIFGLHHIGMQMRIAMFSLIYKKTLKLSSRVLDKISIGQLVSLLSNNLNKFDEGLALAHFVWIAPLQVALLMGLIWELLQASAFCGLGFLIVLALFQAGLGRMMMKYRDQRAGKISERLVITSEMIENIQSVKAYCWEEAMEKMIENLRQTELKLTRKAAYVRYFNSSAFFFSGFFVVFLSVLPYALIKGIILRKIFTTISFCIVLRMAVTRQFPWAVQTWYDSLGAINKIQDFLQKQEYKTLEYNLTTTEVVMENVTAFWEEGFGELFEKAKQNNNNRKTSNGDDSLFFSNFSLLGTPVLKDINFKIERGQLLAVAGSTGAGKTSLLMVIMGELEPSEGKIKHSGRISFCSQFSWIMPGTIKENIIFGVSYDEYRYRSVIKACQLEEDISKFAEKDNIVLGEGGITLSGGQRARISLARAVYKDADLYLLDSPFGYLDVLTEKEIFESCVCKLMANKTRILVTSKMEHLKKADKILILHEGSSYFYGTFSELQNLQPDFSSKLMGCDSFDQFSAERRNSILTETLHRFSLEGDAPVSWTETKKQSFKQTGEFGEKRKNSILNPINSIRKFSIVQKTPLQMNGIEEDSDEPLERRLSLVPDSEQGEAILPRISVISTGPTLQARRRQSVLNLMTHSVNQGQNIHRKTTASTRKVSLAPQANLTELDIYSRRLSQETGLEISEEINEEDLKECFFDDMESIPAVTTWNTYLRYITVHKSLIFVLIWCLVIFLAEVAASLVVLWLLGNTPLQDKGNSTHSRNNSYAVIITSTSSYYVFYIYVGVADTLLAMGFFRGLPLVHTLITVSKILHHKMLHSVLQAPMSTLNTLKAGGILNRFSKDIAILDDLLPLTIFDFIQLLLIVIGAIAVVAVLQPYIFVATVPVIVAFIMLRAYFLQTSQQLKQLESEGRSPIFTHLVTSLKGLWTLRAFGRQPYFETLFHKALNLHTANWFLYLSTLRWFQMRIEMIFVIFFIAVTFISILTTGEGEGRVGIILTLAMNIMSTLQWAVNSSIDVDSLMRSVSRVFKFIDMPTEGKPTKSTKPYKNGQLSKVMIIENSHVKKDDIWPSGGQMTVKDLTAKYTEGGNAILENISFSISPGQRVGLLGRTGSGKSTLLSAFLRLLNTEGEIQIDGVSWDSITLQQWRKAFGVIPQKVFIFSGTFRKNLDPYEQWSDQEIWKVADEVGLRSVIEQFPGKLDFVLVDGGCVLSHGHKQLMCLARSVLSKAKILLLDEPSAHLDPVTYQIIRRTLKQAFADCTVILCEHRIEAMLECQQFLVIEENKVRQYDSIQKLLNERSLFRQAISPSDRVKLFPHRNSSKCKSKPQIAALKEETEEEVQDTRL
CFTR modulatory activity (CFTR potentiator activity) (CFTR),Emax (F508del in NIH 3T3 cells; [1]) [%],"EC50 (F508del in NIH 3T3 cells; NIH 3T3 cells, F508del) [nM]",SMILES,"Emax (F508del in NIH 3T3 cells; NIH3T3, read-out: 3T3 Max Activity (%)) [%]"
,30 to 60,1000 to 3000,"Cc1cccc(-c2cn(-c3cccc(Cl)c3)nc2NS(=O)(=O)c2ccccc2)c1 [Compound 94, N-[1-(3-chlorophenyl)-4-(m-tolyl)pyrazol-3-yl]benzenesulfonamide]",
,> 60,1000 to 3000,Cc1ccc(-c2nc(NS(=O)(=O)c3ccccc3)ccc2C)c(C)c1 [Compound 150],
,30 to 60,1000 to 3000,"Cc1ccc(-c2cn(Cc3ccccc3)nc2NS(=O)(=O)c2ccccc2)cc1 [Compound 101, N-[1-benzyl-4-(p-tolyl)pyrazol-3-yl]benzenesulfonamide]",
,> 60,1000 to 3000,"CCCc1ccc(NS(=O)(=O)c2ccccc2)nc1-c1ccc(C)cc1 [Compound 140, N-[5-propyl-6-(p-tolyl)-2-pyridyl]benzenesulfonamide]",

# More lines, now with the values behind:
SMILES,CFTR modulatory activity (CFTR potentiator activity) (CFTR),Emax (F508del in NIH 3T3 cells; [1]) [%],"EC50 (F508del in NIH 3T3 cells; NIH 3T3 cells, F508del) [nM]","Emax (F508del in NIH 3T3 cells; NIH3T3, read-out: 3T3 Max Activity (%)) [%]"
"C[C@@H]1CCCCC[C@](O)(C(F)(F)F)C2=NN=C(O2)c2nc(c(C(F)(F)F)cc2N)O1 [(6R,12R)-17-Amino-12-methyl-6,15-bis(trifluoromethyl)-13,19-dioxa-3,4,18-triazatricyclo[12.3.1.12,5]nonadeca-1(18),2,4,14,16-pentaen-6-ol]",confirmed,,,
"CCCc1sc(NS(=O)(=O)c2ccccc2)nc1-c1cc(C)ccc1C [Compound 18, N-[4-(2,5-dimethylphenyl)-5-propyl-thiazol-2-yl]benzenesulfonamide]",,> 60,< 1000,
"Cc1cc(C)c(-n2nc(NS(=O)(=O)c3ccccc3)cc2-c2ccccc2Cl)c(C)c1 [Compound 58, N-[5-(2-chlorophenyl)-1-(2,4,6-trimethylphenyl)pyrazol-3-yl]benzenesulfonamide]",,> 60,< 1000,
"Cc1cc(C)c(-n2nc(NS(=O)(=O)c3ccccc3)cc2CC(C)C)c(C)c1 [Compound 52, N-[5-isobutyl-1-(2,4,6-trimethylphenyl)pyrazol-3-yl]benzenesulfonamide]",,> 60,1000 to 3000,
"Cc1ccc(-c2cn(-c3cccc(Cl)c3)nc2NS(=O)(=O)c2ccccc2)cc1 [Compound 93, N-[1-(3-chlorophenyl)-4-(p-tolyl)pyrazol-3-yl]benzenesulfonamide]",,< 30,,
"CCCc1sc(NS(=O)(=O)c2ccccc2)nc1-c1ccc(OCC)cc1 [Compound 19, N-[4-(4-ethoxyphenyl)-5-propyl-thiazol-2-yl]benzenesulfonamide]",,30 to 60,1000 to 3000,
"O=S(=O)(Nc1nn(-c2cccc(Cl)c2)cc1-c1ccccc1Cl)c1ccccc1 [Compound 89, N-[4-(2-chlorophenyl)-1-(3-chlorophenyl)pyrazol-3-yl]benzenesulfonamide]",,< 30,,
"Cc1ccc(C)c(-c2nc(NS(=O)(=O)c3ccccc3)sc2C)c1 [Compound 8, N-[4-(2,5-dimethylphenyl)-5-methyl-thiazol-2-yl]benzenesulfonamide]",,,< 1000,> 60
